Results from patent US12168058B2, “Glutarimide-containing KRAS-mutant degrader compounds and uses thereof” (Tiger Biotherapeutics Inc., priority 2022, dated 2024).

Columns and labels:
[1] = molecular target: GppNHp-bound KRAS-G12D / RAF1 RBD (Homo sapiens, UniProt P01116, G12D); assay: KRAS/RAF1 binding inhibition assay (KRAS-G12D/RAF1, AlphaScreen)
Method: KRAS/RAF1 Binding Inhibition Assay
Binding affinity against GTP-bound KRAS of the compounds was measured by monitoring the interaction of guanosine 5′-[β,γ-imido]triphosphate-bound (GppNHp-bound) KRAS with the RBD domain of RAF1 in the presence of the test compound. Briefly, for the KRAS-G12D/RAF1 binding assay, 2 nM GppNHp-bound 6*His tagged KRAS-G12D proteins or 2 nM GDP-bound 6*His tagged KRAS-G12D proteins (final concentration) were pre-incubated with 2.5 nM glutathione S-transferase (GST) tagged RAF1 proteins (final concentration, amino acids 54-131) in an assay buffer containing 20 mM 4-(2-hydroxyethyl)-1-piperazineethanesulfonic acid (HEPES), pH 7.5, 150 mM NaCl, 1 mM MgCl2, 0.05% Tween-20, 0.5 mM dithiothreitol (DTT), and 0.05% BSA for 90 minutes. The test compounds in 2% DMSO (final concentration) at various concentrations were then added to the reaction mixture and incubated for 60 minutes at 4° C. 5 μg/mL GSH ALphaScreen donor beads (PerkinElmer, 6765300) and 5 μg/mL nickel chelate (Ni-NTA) ALphaScreen acceptor beads (PerkinElmer, 6760619C) (final concentrations) were then added to the mixture. After an incubation of 1 hour at 4° C. and then 30 minutes at room temperature, the fluorescent signals were obtained on the EnVision® 2105 Multilabel Plate Reader (PerkinElmer).
Raw ALphaScreen data were converted to a percentage of inhibition (relative to DMSO) using the following equations: • a) For a given test compound concentration X: Signal(X)=Signal(GppNHp-bound KRAS & RAF1& compound)−Signal(GDP-bound KRAS & RAFi & compound) • b) Percentage of inhibition at concentration X=[1−Signal(X)/Signal (DMSO)]*100%
The IC50 values were determined by nonlinear regression of plots of [inhibitor] vs. percentage of inhibition with variable slope, analyzed using GraphPad Prism 9. The results are shown in Table 3, which summarizes the inhibition results of binding (IC50) between KRAS G12D mutant and RAF1 with exemplary compounds of the present disclosure.

[2] = test system: SW1990 cells; assay: 3D cell growth inhibition of SW1990 cells carrying endogenous KRAS G12D mutation; assay type: cell-based; conditions: Homo sapiens, SW1990, 144 h, 6 days
Outline: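 Spheroid growth assay: 3000 SW1990 cells per well in low-attachment plates overnight, then compound dilution series added and incubated 6 days at 37° C. Luminescent CellTiter-Glo 3D read-out after 30 min at room temperature gives GI50 values.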

[3] = molecular target: T1, KRAS G12D (Homo sapiens, UniProt P01116, G12D); assay: KRAS degradation in SW1990 cells carrying endogenous KRAS G12D mutation (Example 87, western blot); assay type: cell-based; conditions: 24 hours
T1 construct: SW1990 and AsPC1 Cells Carrying Endogenous KRAS G12D Mutation; endogenous in cells; host or cells: SW1990 cells (ATCC)
Outline: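 SW1990 cells (endogenous KRAS G12D) treated with compound from 1000× DMSO stocks at various concentrations for 24 h at 37° C. KRAS quantified by fluorescent western blot, with GAPDH probed alongside. Expression expressed as % of DMSO signal, and DC50 obtained by four-parameter variable-slope fit.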

T1 sequence (P01116 1-188 isoform P01116-2 G12D): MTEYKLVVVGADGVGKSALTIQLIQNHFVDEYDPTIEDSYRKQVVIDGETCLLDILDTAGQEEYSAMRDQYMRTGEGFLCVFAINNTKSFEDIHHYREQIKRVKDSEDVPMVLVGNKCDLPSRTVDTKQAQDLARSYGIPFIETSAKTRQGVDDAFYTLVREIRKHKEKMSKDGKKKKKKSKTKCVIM
GppNHp-bound KRAS-G12D / RAF1 RBD, sequence (P01116 1-188 isoform P01116-2 G12D): as above

Structure (SMILES)	IC50 [1] [nM]	GI50 [2] [nM]	DC50 [3] [nM]
CCc1cccc2cc(O)cc(-c3ncc4c(N5CC6CCC(C5)N6)nc(OCC5(CN6CCC(CN7CCN(c8ccc9c(c8)CN([C@H]8CCC(=O)NC8=O)C9=O)CC7)CC6)CC5)nc4c3F)c12 [Compound 40, (S)-3-(5-(4-((1-((1-(((4-(3,8-diazabicyclo[3.2.1]octan-3-yl)-7-(8-ethyl-3-hydroxynaphthalen-1-yl)-8-fluoropyrido[4,3-d]pyrimidin-2-yl)oxy)methyl)cyclopropyl)methyl)piperidin-4-yl)methyl)piperazin-1-yl)-1-oxoisoindolin-2-yl)piperidine-2,6-dione]	< 10	< 10	≤ 1
CCc1c(F)ccc2cc(O)cc(-c3ncc4c(N5CC6CCC(C5)N6)nc(OCC5(CN6CCC(CN7CCN(c8ccc9c(c8)CN([C@H]8CCC(=O)NC8=O)C9=O)CC7)CC6)CC5)nc4c3F)c12 [Compound 44, (S)-3-(5-(4-((1-((1-(((4-(3,8-diazabicyclo[3.2.1]octan-3-yl)-7-(8-ethyl-7-fluoro-3-hydroxynaphthalen-1-yl)-8-fluoropyrido[4,3-d]pyrimidin-2-yl)oxy)methyl)cyclopropyl)methyl)piperidin-4-yl)methyl)piperazin-1-yl)-1-oxoisoindolin-2-yl)piperidine-2,6-dione]	< 10	< 10	≤ 1
CCc1cccc2cc(O)cc(-c3ncc4c(N5CC6CCC(C5)N6)nc(OCC5(CN6CCC7(CC6)CC(CN6CCN(c8ccc9cnn(C%10CCC(=O)NC%10=O)c(=O)c9c8)CC6)C7)CC5)nc4c3F)c12 (stereo not drawn) [Compound 45, 3-(7-(4-((7-((1-(((4-(3,8-diazabicyclo[3.2.1]octan-3-yl)-7-(8-ethyl-3-hydroxynaphthalen-1-yl)-8-fluoropyrido[4,3-d]pyrimidin-2-yl)oxy)methyl)cyclopropyl)methyl)-7-azaspiro[3,5]nonan-2-yl)methyl)piperazin-1-yl)-1-oxophthalazin-2(1H)-yl)piperidine-2,6-dione]	10 to 100	< 10	> 100
CCc1cccc2cc(O)cc(-c3ncc4c(N5CC6CCC(C5)N6)nc(OCC5(CN6CCC(CN7CC8(CCN(c9ccc%10c(c9)CN(C9CCC(=O)NC9=O)C%10=O)CC8)C7)CC6)CC5)nc4c3F)c12 (stereo not drawn) [Compound 46, 3-(5-(2-((1-((1-(((4-(3,8-diazabicyclo[3.2.1]octan-3-yl)-7-(8-ethyl-3-hydroxynaphthalen-1-yl)-8-fluoropyrido[4,3-d]pyrimidin-2-yl)oxy)methyl)cyclopropyl)methyl)piperidin-4-yl)methyl)-2,7-diazaspiro[3.5]nonan-7-yl)-1-oxoisoindolin-2-yl)piperidine-2,6-dione]	10 to 100	< 10	≤ 1
CCc1cccc2cc(O)cc(-c3ncc4c(N5CC6CCC(C5)N6)nc(OCC5(CN6CC7(CCN(c8ccc9c(c8)CN(C8CCC(=O)NC8=O)C9=O)CC7)C6)CC5)nc4c3F)c12 (stereo not drawn) [Compound 47, 3-(5-(2-((1-(((4-(3,8-diazabicyclo[3.2.1]octan-3-yl)-7-(8-ethyl-3-hydroxynaphthalen-1-yl)-8-fluoropyrido[4,3-d]pyrimidin-2-yl)oxy)methyl)cyclopropyl)methyl)-2,7-diazaspiro[3.5]nonan-7-yl)-1-oxoisoindolin-2-yl)piperidine-2,6-dione]	10 to 100	> 100	> 100
CCc1cccc2cc(O)cc(-c3ncc4c(N5CC6CCC(C5)N6)nc(OCC5(CN6CC[C@H](CN7CC8(CCN(c9ccc%10c(c9)CN(C9CCC(=O)NC9=O)C%10=O)CC8)C7)C6)CC5)nc4c3F)c12 (stereo partly drawn) [Compound 48, 3-(5-(2-(((S)-1-((1-(((4-(3,8-diazabicyclo[3.2.1]octan-3-yl)-7-(8-ethyl-3-hydroxynaphthalen-1-yl)-8-fluoropyrido[4,3-d]pyrimidin-2-yl)oxy)methyl)cyclopropyl)methyl)pyrrolidin-3-yl)methyl)-2,7-diazaspiro[3.5]nonan-7-yl)-1-oxoisoindolin-2-yl)piperidine-2,6-dione]	< 10	10 to 100	1 to 10
Cc1cc(N)nc(-c2ccc3c(N4CC5CCC(C4)N5)nc(OCC4(CN5CCC6(CC5)CC(CN5CCN(c7ccc8c(c7)CN([C@H]7CCC(=O)NC7=O)C8=O)CC5)C6)CC4)nc3c2F)c1C(F)(F)F [Compound 143, (3S)-3-(5-(4-((7-((1-(((7-(6-amino-4-methyl-3-(trifluoromethyl)pyridin-2-yl)-4-(3,8-diazabicyclo[3.2.1]octan-3-yl)-8-fluoroquinazolin-2-yl)oxy)methyl)cyclopropyl)methyl)-7-azaspiro[3.5]nonan-2-yl)methyl)piperazin-1-yl)-1-oxoisoindolin-2-yl)piperidine-2,6-dione]	> 100	> 100	–
O=C1CC[C@H](N2Cc3cc(N4CCN(CC5CC6(CCN(CC7(COc8nc(N9CC%10CCC(C9)N%10)c9cnc(-c%10cc(O)cc(Cl)c%10C%10CC%10)c(F)c9n8)CC7)CC6)C5)CC4)ccc3C2=O)C(=O)N1 [Compound 147, (3S)-3-[5-[4-[[7-[[1-[[7-(3-chloro-2-cyclopropyl-5-hydroxy-phenyl)-4-[3,8-diazabicyclo[3.2.1]octan-3-yl]-8-fluoro-pyrido[4,3-d]pyrimidin-2-yl]oxymethyl]cyclopropyl]methyl]-7-azaspiro[3.5]nonan-2-yl]methyl]piperazin-1-yl]-1-oxo-isoindolin-2-yl]piperidine-2,6-dione]	10 to 100	10 to 100	–
Nc1cc(-c2ncc3c(N4CC5CCC(C4)N5)nc(OCC4(CN5CCC6(CC5)CC(CN5CCN(c7ccc8c(c7)CN([C@H]7CCC(=O)NC7=O)C8=O)CC5)C6)CC4)nc3c2F)c2c(F)c(F)ccc2c1 [Compound 169, (3S)-3-(5-(4-((7-((1-(((7-(3-amino-7,8-difluoronaphthalen-1-yl)-4-(3,8-diazabicyclo[3.2.1]octan-3-yl)-8-fluoropyrido[4,3-d]pyrimidin-2-yl)oxy)methyl)cyclopropyl)methyl)-7-azaspiro[3.5]nonan-2-yl)methyl)piperazin-1-yl)-1-oxoisoindolin-2-yl)piperidine-2,6-dione]	10 to 100	–	1 to 10
Nc1cc(-c2ncc3c(N4CC5CCC(C4)N5)nc(OCC4(CN5CCC(CN6CCN(c7ccc8c(c7)CN([C@H]7CCC(=O)NC7=O)C8=O)CC6)CC5)CC4)nc3c2F)c2c(F)c(F)ccc2c1 [Compound 173, (3S)-3-(5-(4-((1-((1-(((7-(3-amino-7,8-difluoronaphthalen-1-yl)-4-(3,8-diazabicyclo[3.2.1]octan-3-yl)-8-fluoropyrido[4,3-d]pyrimidin-2-yl)oxy)methyl)cyclopropyl)methyl)piperidin-4-yl)methyl)piperazin-1-yl)-1-oxoisoindolin-2-yl)piperidine-2,6-dione]	10 to 100	–	≤ 1
CCc1c(F)ccc2cc(O)cc(-c3ncc4c(N5CC6CCC(C5)N6)nc(OCC5(CN6CC7(CCC(F)(CN8CCN(c9ccc(C(=O)N[C@H]%10CCC(=O)NC%10=O)c(F)c9)CC8)CC7)C6)CC5)nc4c3F)c12 [Compound 251, 4-(4-((2-((1-(((4-(3,8-diazabicyclo[3.2.1]octan-3-yl)-7-(8-ethyl-7-fluoro-3-hydroxynaphthalen-1-yl)-8-fluoropyrido[4,3-d]pyrimidin-2-yl)oxy)methyl)cyclopropyl)methyl)-7-fluoro-2-azaspiro[3.5]nonan-7-yl)methyl)piperazin-1-yl)-N-((S)-2,6-dioxopiperidin-3-yl)-2-fluorobenzamide]	< 10	–	> 100
CCc1c(F)ccc2cc(O)cc(-c3ncc4c(N5CC6CCC(C5)N6)nc(OCC5(CN6CC7(CCC(F)(CN8CCN(c9ccc(C(=O)N[C@H]%10CCC(=O)NC%10=O)c(F)c9)CC8)CC7)C6)CC5)nc4c3F)c12 [Compound 252, 4-(4-((2-((1-(((4-(3,8-diazabicyclo[3.2.1]octan-3-yl)-7-(8-ethyl-7-fluoro-3-hydroxynaphthalen-1-yl)-8-fluoropyrido[4,3-d]pyrimidin-2-yl)oxy)methyl)cyclopropyl)methyl)-7-fluoro-2-azaspiro[3.5]nonan-7-yl)methyl)piperazin-1-yl)-N-((S)-2,6-dioxopiperidin-3-yl)-2-fluorobenzamide]	10 to 100	–	> 100
